Measurements published in ChEMBL document CHEMBL1201862, “PubChem BioAssay data set” (2004).
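These data come from cells grown in 96-well plates and exposed to compound for 48 hours at five concentrations. GI50 = concentration required for 50% inhibition of growth.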 Calls of active or inactive are those of the source. Cut-off read from the data, not from the text of the source: active = GI50 up to about 1.1 µM and inactive = higher.

Tests used:
Experiment in all cases: DTP human tumour cell line panel, 48 h
786-0 = test system: 786-0
A549 = test system: A549
ACHN = test system: ACHN
BT-549 = test system: BT-549
CAKI-1 = test system: CAKI-1
CCRF-CEM = test system: CCRF-CEM
COLO 205 = test system: COLO 205
DU-145 = test system: DU-145
EKVX = test system: EKVX
HCC 2998 = test system: HCC 2998
HCT-116 = test system: HCT-116
HCT-15 = test system: HCT-15
HL-60 = test system: HL-60
HOP-62 = test system: HOP-62
HOP-92 = test system: HOP-92
HT-29 = test system: HT-29
Hs-578T = test system: Hs-578T
IGROV-1 = test system: IGROV-1
KM12 = test system: KM12
LOX IMVI = test system: LOX IMVI
M14 = test system: M14
MCF7 = test system: MCF7
MDA-MB-231 = test system: MDA-MB-231
MDA-MB-435 = test system: MDA-MB-435
MDA-N = test system: MDA-N
MOLT-4 = test system: MOLT-4
NCI-H226 = test system: NCI-H226
NCI-H23 = test system: NCI-H23
NCI-H460 = test system: NCI-H460
NCI-H522 = test system: NCI-H522
NCI/ADR-RES = test system: NCI/ADR-RES
OVCAR-3 = test system: OVCAR-3
OVCAR-4 = test system: OVCAR-4
OVCAR-5 = test system: OVCAR-5
OVCAR-8 = test system: OVCAR-8
PC-3 = test system: PC-3
RXF 393 = test system: RXF 393
SF-268 = test system: SF-268
SF-295 = test system: SF-295
SF-539 = test system: SF-539
SK-MEL-28 = test system: SK-MEL-28
SK-MEL-2 = test system: SK-MEL-2
SK-MEL-5 = test system: SK-MEL-5
SK-OV-3 = test system: SK-OV-3
SN12C = test system: SN12C
SNB-19 = test system: SNB-19
SNB-75 = test system: SNB-75
SW-620 = test system: SW-620
TK-10 = test system: TK-10
U-251 = test system: U-251
UACC-257 = test system: UACC-257
UACC-62 = test system: UACC-62
UO-31 = test system: UO-31
A498 = test system: A498
K562 = test system: K562
RPMI-8226 = test system: RPMI-8226
T47D = test system: T47D
Malme-3M = test system: Malme-3M
SR = test system: SR

SMILES: COC(=O)C(=O)C(C(=O)C(=O)Nc1cccc([N+](=O)[O-])c1)c1nc2ccc(Cl)cc2nc1O (stereo unspecified)
- GI50 (786-0): > 100 µM (inactive)
- GI50 (A549): > 100 µM (inactive)
- GI50 (ACHN): > 100 µM (inactive)
- GI50 (BT-549): > 100 µM (inactive)
- GI50 (CAKI-1): 95.7 µM (inactive)
- GI50 (CCRF-CEM): > 100 µM (inactive)
- GI50 (COLO 205): > 100 µM (inactive)
- GI50 (DU-145): > 100 µM (inactive)
- GI50 (EKVX): 18.1 µM (inactive)
- GI50 (HCC 2998): > 100 µM (inactive)
- GI50 (HCT-116): > 100 µM (inactive)
- GI50 (HCT-15): > 100 µM
- GI50 (HL-60): > 100 µM (inactive)
- GI50 (HOP-62): > 100 µM (inactive)
- GI50 (HOP-92): > 100 µM (inactive)
- GI50 (HT-29): > 100 µM (inactive)
- GI50 (Hs-578T): > 100 µM (inactive)
- GI50 (IGROV-1): > 100 µM (inactive)
- GI50 (KM12): > 100 µM (inactive)
- GI50 (LOX IMVI): > 100 µM (inactive)
- GI50 (M14): > 100 µM (inactive)
- GI50 (MCF7): > 100 µM (inactive)
- GI50 (MDA-MB-231): 65.3 µM (inactive)
- GI50 (MDA-MB-435): > 100 µM (inactive)
- GI50 (MDA-N): > 100 µM (inactive)
- GI50 (MOLT-4): > 100 µM (inactive)
- GI50 (NCI-H226): 82.6 µM (inactive)
- GI50 (NCI-H23): > 100 µM (inactive)
- GI50 (NCI-H460): > 100 µM (inactive)
- GI50 (NCI-H522): > 100 µM (inactive)
- GI50 (NCI/ADR-RES): > 100 µM (inactive)
- GI50 (OVCAR-3): > 100 µM (inactive)
- GI50 (OVCAR-4): > 100 µM (inactive)
- GI50 (OVCAR-5): > 100 µM (inactive)
- GI50 (OVCAR-8): > 100 µM (inactive)
- GI50 (PC-3): > 100 µM (inactive)
- GI50 (RXF 393): > 100 µM (inactive)
- GI50 (SF-268): > 100 µM (inactive)
- GI50 (SF-295): > 100 µM (inactive)
- GI50 (SF-539): 45.5 µM (inactive)
- GI50 (SK-MEL-28): > 100 µM (inactive)
- GI50 (SK-MEL-2): > 100 µM (inactive)
- GI50 (SK-MEL-5): > 100 µM (inactive)
- GI50 (SK-OV-3): > 100 µM (inactive)
- GI50 (SN12C): > 100 µM (inactive)
- GI50 (SNB-19): > 100 µM (inactive)
- GI50 (SNB-75): 77.1 µM (inactive)
- GI50 (SW-620): > 100 µM (inactive)
- GI50 (TK-10): > 100 µM (inactive)
- GI50 (U-251): > 100 µM (inactive)
- GI50 (UACC-257): > 100 µM (inactive)
- GI50 (UACC-62): > 100 µM (inactive)
- GI50 (UO-31): 36.7 µM (inactive)

SMILES: CSc1ccc2c(cc1=O)[C@@H](NC(=O)c1ccc(N)cc1)CCc1cc(O)c(O)c(O)c1-2
- GI50 (786-0): 16.4 µM (inactive)
- GI50 (A498): 46.2 µM (inactive)
- GI50 (A549): 23.6 µM (inactive)
- GI50 (ACHN): 21.2 µM (inactive)
- GI50 (BT-549): 16 µM (inactive)
- GI50 (DU-145): 49.1 µM (inactive)
- GI50 (EKVX): 30.1 µM (inactive)
- GI50 (HCC 2998): 14.5 µM (inactive)
- GI50 (HCT-15): 17.9 µM
- GI50 (HOP-62): 15.1 µM (inactive)
- GI50 (HOP-92): 41.4 µM (inactive)
- GI50 (IGROV-1): 25 µM (inactive)
- GI50 (K562): 9.66 µM (inactive)
- GI50 (MDA-MB-435): 7.85 µM (inactive)
- GI50 (MOLT-4): 22.6 µM (inactive)
- GI50 (NCI-H460): 12 µM (inactive)
- GI50 (NCI-H522): 7.67 µM (inactive)
- GI50 (NCI/ADR-RES): 28.5 µM (inactive)
- GI50 (OVCAR-4): 22 µM (inactive)
- GI50 (OVCAR-5): 23.4 µM (inactive)
- GI50 (OVCAR-8): 22 µM (inactive)
- GI50 (RPMI-8226): 22.3 µM (inactive)
- GI50 (SF-268): 13.6 µM (inactive)
- GI50 (SF-295): 15.7 µM (inactive)
- GI50 (SF-539): 3.85 µM (inactive)
- GI50 (SK-OV-3): > 100 µM (inactive)
- GI50 (SN12C): 27.9 µM (inactive)
- GI50 (SNB-19): 25.1 µM (inactive)
- GI50 (T47D): 66.1 µM (inactive)
- GI50 (U-251): 25.4 µM (inactive)
- GI50 (UACC-257): 18.3 µM (inactive)
- GI50 (UO-31): 26 µM (inactive)

SMILES: Oc1ccccc1/C=N/c1ccc(Oc2ccc(Cl)cc2)c(Cl)c1
- GI50 (786-0): 26 µM (inactive)
- GI50 (A498): 11.5 µM (inactive)
- GI50 (A549): 20.6 µM (inactive)
- GI50 (ACHN): 30.3 µM (inactive)
- GI50 (BT-549): 15.8 µM (inactive)
- GI50 (CAKI-1): 23.2 µM (inactive)
- GI50 (CCRF-CEM): 12.4 µM (inactive)
- GI50 (COLO 205): 21.8 µM (inactive)
- GI50 (DU-145): 81.8 µM (inactive)
- GI50 (EKVX): 21.3 µM (inactive)
- GI50 (HCC 2998): 18.5 µM (inactive)
- GI50 (HCT-116): 16.7 µM (inactive)
- GI50 (HCT-15): 16.3 µM
- GI50 (HL-60): 17.9 µM (inactive)
- GI50 (HOP-62): 15.5 µM (inactive)
- GI50 (HOP-92): 20 µM (inactive)
- GI50 (HT-29): 19.5 µM (inactive)
- GI50 (Hs-578T): 19.7 µM (inactive)
- GI50 (IGROV-1): 22.7 µM (inactive)
- GI50 (KM12): 23.8 µM (inactive)
- GI50 (LOX IMVI): 15.7 µM (inactive)
- GI50 (M14): 18.5 µM (inactive)
- GI50 (MCF7): 41.7 µM (inactive)
- GI50 (MDA-MB-231): 16.1 µM (inactive)
- GI50 (MDA-MB-435): 28.3 µM (inactive)
- GI50 (MOLT-4): 30.1 µM (inactive)
- GI50 (Malme-3M): 19.5 µM (inactive)
- GI50 (NCI-H226): 25.2 µM (inactive)
- GI50 (NCI-H23): 18.6 µM (inactive)
- GI50 (NCI-H460): 18.6 µM (inactive)
- GI50 (NCI-H522): 14.4 µM (inactive)
- GI50 (NCI/ADR-RES): 19.3 µM (inactive)
- GI50 (OVCAR-3): 15 µM (inactive)
- GI50 (OVCAR-4): 22.4 µM (inactive)
- GI50 (OVCAR-5): 26.1 µM (inactive)
- GI50 (OVCAR-8): 19.9 µM (inactive)
- GI50 (PC-3): 20.9 µM (inactive)
- GI50 (RPMI-8226): 21.5 µM (inactive)
- GI50 (SF-268): 17.9 µM (inactive)
- GI50 (SF-295): 18.7 µM (inactive)
- GI50 (SF-539): 20.9 µM (inactive)
- GI50 (SK-MEL-28): 25 µM (inactive)
- GI50 (SK-MEL-2): 13.6 µM (inactive)
- GI50 (SK-MEL-5): 20.8 µM (inactive)
- GI50 (SK-OV-3): 29.8 µM (inactive)
- GI50 (SN12C): 21.8 µM (inactive)
- GI50 (SNB-19): 17.4 µM (inactive)
- GI50 (SNB-75): 21.1 µM (inactive)
- GI50 (SR): 38.2 µM (inactive)
- GI50 (SW-620): 28.9 µM (inactive)
- GI50 (T47D): 5.97 µM (inactive)
- GI50 (TK-10): 39.5 µM (inactive)
- GI50 (U-251): 21.2 µM (inactive)
- GI50 (UACC-257): 28.6 µM (inactive)
- GI50 (UACC-62): 24.9 µM (inactive)
- GI50 (UO-31): 11.1 µM (inactive)
